Test results reported in patent US20040235799A1, “Use of a compound with a negatively charged domain of radicals for the treatment of restenosis” (priority 2001, published 2004).

System: Wistar rats
Assay: Neointima formation after balloon catheter vessel injury of the carotid artery in rats
Type: in vivo
Description: The effects on neointima formation was assessed after inducing vessel injury in rats with a balloon catheter. Neointima formation is an important part in the process of restenosis. Adult mate Wistar rats (250-260 g) were housed under standard conditions and were fed with commercial rat chow and water ad libitum. During the experiment D-myo-inositol-1,2,6-trisphosphate (IP3) was administered via subcutaneously operated osmotic minipumps with a dose level of 1 mg/kg/hr. A control group received saline solution by osmotic minipumps. The animals were anaesthetised with an intraperitoneal injection of ketamine, 100 mg/kg, (MTC Pharmaceuticals, Cambridge, Ontario, Canada) and xylazine, 10 mg/kg (Bayer lnc., Etobicoke, Ontario, Canada). Using a dissecting microscope, the left carotid artery was exposed on the ventral side of the neck via a midline incision. The bifurcation of the carotid artery was located and two ligatures were placed around the external carotid artery, which was then tied off with the distal ligature. After temporarily occluding the internal carotid artery with a vascular clamp, a small incision was made between the two ligatures placed around the external carotid artery to introduce the endothelial denudation device, an inflated […] Fogarty embolectomy catheter (Baxter Healthcare, Buckinghamshire, UK). […]

O=P(O)(O)O[C@@H]1[C@H](OP(=O)(O)O)[C@H](O)[C@@H](O)[C@H](O)[C@H]1OP(=O)(O)O [IP3, D-myo-inositol-1,2,6-trisphosphate]
Reduction of neointima formation (vs saline control, 1 mg/kg/hr via subcutaneous osmotic minipumps, 14 days post-operatively): 57%

O=C(Nc1ccccc1)O[C@@H]1[C@@H](OC(=O)Nc2ccccc2)[C@@H](OP(=O)(O)O)[C@@H](OP(=O)(O)O)[C@H](OP(=O)(O)O)[C@H]1OC(=O)Nc1ccccc1 [PP 11-201, D-3,4,5-tri-O-(phenylcarbamoyl) myo-inositol-1,2,6-trisphosphate]
Reduction of neointima formation (vs control, procedure similar to Example 3): 62%
